Reference: EP0307553B1, “Modified splenopentines, their process of preparation and their use” (priority 1987, dated 1989)
Entries after “also recorded” stand apart in the source; their conditions may differ. Like-named read-outs stand apart in the source and are kept apart here.

Legend:
NMRI-Mäuse = type: in vivo; details: i. p., without DAc-SP5
From the text: Der Einfluß von DAc-SP5 und immunsuppressiv wirkenden Verbindungen auf die Antigen-spezifische IgM-Antwort bei Mäusen wurde untersucht. Die erhaltenen Ergebnisse sind in den Fig.1 und 2 dargestellt.
DAc-SP5 rekonstituiert bereits durch wenige aufeinanderfolgende Applikationen die chemisch induzierts Suppression der humoralen Immunantwort.

männlichen Balb/c-Mäusen = details: in vivo
AB/Bln.-Mäuse = assay: Antibody formation against sheep erythrocytes (Jerne plaque test) after sublethal X-ray irradiation; type: in vivo; details: 600 c Gy; 10 or 50 µg i.p. every second day; untreated irradiated animals 48 days
From the text: N^ε-MAc-SP5 (Sequenz 32 bis 36 des Milzhormons Splenin) hat die gleichen bzw. ähnliche immunbiologische Wirkungen wie das Gesamtmolekül Splenin. […] Funktionstüchtige T-Helferlymphocyten stimulieren die Antikörperbildung. Zum Nachweis einer Erhöhung der Antikörper-Bildung durch N^ε-MAc-SP5 wurde ein relevantes tierexperimentelles Modell gewählt: AB/Bln.-Mäuse wurden mit Röntgenstrahlen subletal bestrahlt und danach mit bzw. ohne N^ε-MAc-SP5 therapiert. Gleichzeitig erfolgte die Immunisierung der Tiere mit Schafserythrocyten. Da subletal bestrahlte Tiere die Fähigkeit verlieren, quantitativ ausreichend Antikörper zu produzieren, ist eine vermehrte Bildung von Antikörpern gegen Schafserythrocyten bei den mit N^ε-MAc-SP5 behandelten Tieren ein Maß für die Regeneration des Immunsystems durch N^ε-MAc-SP5. Mit N^ε-MAc-SP5 behandelte Tiere konnten bereits nach 34 Tagen Antikörper in gleicher Menge wie unbestrahlte Kontrolltiere bilden. Im Vergleich dazu waren nicht mit N^ε-MAc-SP5 behandelte Tiere dazu erst 48 Tage nach der einmaligen Röntgenbestrahlung befähigt. […]

[1] = test system: T4-Antigenen auf der Oberfläche menschlicher Lymphocyten; assay: Increase of T4 antigens on the surface of human lymphocytes of SLE patients in vitro (monoclonal antibodies); type: cell-based, Mensch
From the text: N^ε-MAc-SP5 (Sequenz 32 bis 36 des Milzhormons Splenin) hat die gleichen bzw. ähnliche immunbiologische Wirkungen wie das Gesamtmolekül Splenin. […] Funktionstüchtige T-Helferlymphocyten stimulieren die Antikörperbildung. Zum Nachweis einer Erhöhung der Antikörper-Bildung durch N^ε-MAc-SP5 wurde ein relevantes tierexperimentelles Modell gewählt: AB/Bln.-Mäuse wurden mit Röntgenstrahlen subletal bestrahlt und danach mit bzw. ohne N^ε-MAc-SP5 therapiert. Gleichzeitig erfolgte die Immunisierung der Tiere mit Schafserythrocyten. Da subletal bestrahlte Tiere die Fähigkeit verlieren, quantitativ ausreichend Antikörper zu produzieren, ist eine vermehrte Bildung von Antikörpern gegen Schafserythrocyten bei den mit N^ε-MAc-SP5 behandelten Tieren ein Maß für die Regeneration des Immunsystems durch N^ε-MAc-SP5. Mit N^ε-MAc-SP5 behandelte Tiere konnten bereits nach 34 Tagen Antikörper in gleicher Menge wie unbestrahlte Kontrolltiere bilden. Im Vergleich dazu waren nicht mit N^ε-MAc-SP5 behandelte Tiere dazu erst 48 Tage nach der einmaligen Röntgenbestrahlung befähigt.
Funktionstüchtige (reife) T-Helferlymphocyten besitzen auf ihrer Oberfläche T4-Antigene, T-Suppressorlymphocyten T8-Antigene. Bei Patienten mit Systemischem Lupus Erythematodes (SLE) wurde mittels monoklonaler Antikörper ein verminderter Gehalt von T4-Antigenen auf der Lymphocytenoberfläche bestimmt. […]

[2] = test system: Lymphocyten der SLE-Patienten; assay: 3H-thymidine incorporation of lymphocytes of SLE patients; type: cell-based, Mensch; details: after contact with N^ε-MAc-SP5; n = 5; no significant deviation from no contact (t-test)
From the text: T4-Antigene nehmen zu, wenn sich T4-Zellen vermehren bzw., wenn die Antigene vermehrt auf ihrer Oberfläche exprimiert werden. Die Untersuchungen ergaben, daß die Lymphocyten der SLE-Patienten nach Kontakt mit N^ε-MAc-SP5 keine erhöhten ³H-Thymidineinbauraten aufwiesen (910 ± 180 Impulse je Minute ohne N^ε-MAc-SP-5-Kontakt/820 ± 210 Impulse je Minute nach Kontakt mit N^ε-MAc-SP5; n = 5, keine signifikante Abweichung im t-Test). Es ist daher anzunehmen, daß die Zunahme der T4-Antigene nicht durch eine Vermehrung von T4-Zellen zustandekommt, sondern Folge einer strukturellen Veränderung der T-Zelloberfläche, möglicherweise identisch mit einem "Reifeprozeß" der Zelle, ist.

## C[C@@H]1C[C@H]2[C@@H]3CCC4=CC(=O)C=C[C@]4(C)[C@@]3(F)[C@@H](O)C[C@]2(C)[C@@]1(O)C(=O)CO [Dexamethason]
NMRI-Mäuse; 0,2 mg/Tier or 0,08 mg/Tier
  Antigen-spezifischen IgM-Antwort: Reduktion

## CCO [Ethanol]
männlichen Balb/c-Mäusen
  % phagocytierende Peritonealzellen: 29,0±1,7%
  Milzmasse (mg): 60,0±3,2 mg
  Phagocytoseindex: 3,0±0,08
  Plaque-bildende Zellen der Milz pro 10⁶ Zellen (Jerne-Plaquetest): 61,3±3,8 pro 10⁶ Zellen
  Thymusmasse (mg): 15,0±2,6 mg

## O=P1(N(CCCl)CCCl)NCCCO1 (centres unmarked) [Cyclophosphamid]
NMRI-Mäuse; single dose 7,2 mg/Tier
  Antigen-spezifischen IgM-Antwort: nahezu vollständige Suppression

## Arginyl(N^ε-acetyl-lysyl)glutamylvalyl)tyrpsin [N^ε-MAc-SP5]
AB/Bln.-Mäuse
  time after X-ray irradiation until Antikörper in gleicher Menge wie unbestrahlte Kontrolltiere: 34 Tage
[1]; lymphocytes of SLE patients after contact with N^ε-MAc-SP5
  TB-Antigene (Oberflächenantigene auf T-Suppressorlymphocyten bzw. cytotoxischen T-Lymphocyten): veränderten sich dagegen quantitativ nicht
[1]; lymphocytes of SLE patients before therapy, 2 h incubation with N^ε-MAc-SP5
  Anzahl von T4-Antigenen: quantitative Zunahme von T4-Antigenen; also recorded: permanent erhöhte Anzahl von T4-Antigenen
[2]
  ³H-Thymidineinbauraten: 820 ± 210 Impulse je Minute
